Measurements from patent US20110178070A1, “PI3K/mTOR INHIBITORS” (TAKEDA PHARMACEUTICAL COMPANY LIMITED, priority 2008, published 2011).
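Note: synthetic Ser/Thr peptide with coumarin–fluorescein FRET pair, phosphorylation protects from protease cleavage, coumarin/fluorescein emission ratio after 400 nm excitation, 1 h kinase reaction, 10-point 3-fold titrations.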

The molecules below were run against mTOR (Homo sapiens, UniProt P42345) (assay: Z-Lyte biochemical assay, inhibition of mTOR (Example A)). Conditions: IC50 (nM) mTOR, Table 1; 10 μM ATP.
mTOR, sequence (P42345 1360-2549): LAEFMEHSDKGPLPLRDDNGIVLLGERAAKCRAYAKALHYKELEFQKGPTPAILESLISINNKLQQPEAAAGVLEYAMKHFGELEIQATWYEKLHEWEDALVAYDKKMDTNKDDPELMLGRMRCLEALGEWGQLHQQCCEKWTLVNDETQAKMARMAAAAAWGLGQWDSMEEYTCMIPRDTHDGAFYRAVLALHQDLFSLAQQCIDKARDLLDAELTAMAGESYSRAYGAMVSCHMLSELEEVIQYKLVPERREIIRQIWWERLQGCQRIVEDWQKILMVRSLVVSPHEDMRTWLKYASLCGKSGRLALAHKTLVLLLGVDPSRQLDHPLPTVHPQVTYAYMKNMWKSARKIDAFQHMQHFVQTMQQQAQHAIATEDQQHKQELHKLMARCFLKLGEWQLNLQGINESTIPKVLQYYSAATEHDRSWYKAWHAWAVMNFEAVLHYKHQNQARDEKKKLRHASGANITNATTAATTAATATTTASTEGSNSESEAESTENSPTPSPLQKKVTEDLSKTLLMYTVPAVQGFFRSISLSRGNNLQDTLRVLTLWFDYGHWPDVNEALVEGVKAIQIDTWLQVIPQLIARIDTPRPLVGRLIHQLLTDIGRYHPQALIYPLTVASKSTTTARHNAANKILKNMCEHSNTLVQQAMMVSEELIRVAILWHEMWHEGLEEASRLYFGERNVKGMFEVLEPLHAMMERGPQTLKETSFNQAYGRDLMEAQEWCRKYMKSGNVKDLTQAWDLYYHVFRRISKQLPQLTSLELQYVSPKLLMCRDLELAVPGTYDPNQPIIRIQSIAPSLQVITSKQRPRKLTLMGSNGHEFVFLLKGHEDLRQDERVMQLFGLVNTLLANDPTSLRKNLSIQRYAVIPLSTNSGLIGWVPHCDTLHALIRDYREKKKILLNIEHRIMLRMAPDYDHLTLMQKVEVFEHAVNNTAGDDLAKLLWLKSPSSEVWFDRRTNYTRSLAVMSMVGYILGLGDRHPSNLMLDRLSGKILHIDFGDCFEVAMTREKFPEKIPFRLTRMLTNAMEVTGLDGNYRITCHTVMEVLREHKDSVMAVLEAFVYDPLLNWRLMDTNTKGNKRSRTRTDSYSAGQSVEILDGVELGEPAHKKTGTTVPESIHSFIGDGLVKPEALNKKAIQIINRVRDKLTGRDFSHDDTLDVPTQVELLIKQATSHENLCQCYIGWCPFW
Protocol: The inhibitory property of a compound relative to mTOR catalysis was determined by using the Z-Lyte™ biochemical assay conducted by Invitrogen Corporation (Madison, Wis.), which employs a fluorescence-based, coupled-enzyme format and is based on the differential sensitivity of phosphorylated and non-phosphorylated peptides to proteolytic cleavage. The peptide substrate is labeled with two fluorophores—one at each end—that make up a FRET pair.
In the primary reaction, the kinase transfers the gamma-phosphate of ATP to a single tyrosine, serine or threonine residue in a synthetic FRET-peptide. In the secondary reaction, a site-specific protease recognizes and cleaves non-phosphorylated FRET-peptides. Phosphorylation of FRET-peptides suppresses cleavage by the Development Reagent. Cleavage disrupts FRET between the donor (i.e., coumarin) and acceptor (i.e., fluorescein) fluorophores on the FRET-peptide, whereas uncleaved, phosphorylated FRET-peptides maintain FRET. A ratio metric method, which calculates the ratio (the Emission Ratio) of donor emission to acceptor emission after excitation of the donor fluorophore at 400 nm, is used to quantitate reaction progress, as shown in the equation below.
A significant benefit of this ratio metric method for quantitating reaction progress is the elimination of well-to-well variations in FRET-peptide concentration and signal intensities. […] Both cleaved and uncleaved FRET-peptides contribute to the fluorescence signals and therefore to the Emission Ratio. The extent of phosphorylation of the FRET-peptide can be calculated from the Emission Ratio.
Recombinant human mTOR enzyme (amino acids 1360-2549), GST-tagged, expressed in and purified from insect cells (Invitrogen Corp. Cat. #PV4753; also known as FRAP1) was used for the assay. The 2×FRAP1 (mTOR)/Ser/Thr 11 Peptide Mixture (Invitrogen Corp.) was prepared in buffer containing 50 mM HEPES pH 7.5, 0.01% BRIJ-35, 10 mM MnCl2, 1 mM EGTA, 2 mM DTT, and 0.02% NaN3. The final 10 μL Kinase Reaction consisted of 7.2-58.1 ng FRAP1 (mTOR) and 2 μM Ser/Thr 11 Peptide in buffer containing 50 mM HEPES pH 7.5, 0.01% BRIJ-35, 5 mM MgCl2, 5 mM MnCl2, 1 mM EGTA, 1 mM DTT, and 0.01% NaN3.
Test compounds are screened in 1% DMSO (final) in the well. For 10 point titrations, 3-fold serial dilutions are conducted from the starting concentration. The Ser/Thr 11 Peptide/Kinase Mixture was diluted to a 2× working concentration in buffer containing 50 mM HEPES pH 7.5, 0.01% BRIJ-35, 10 mM MnCl2, 1 mM EGTA, 2 mM DTT, and 0.02% NaN3. The ATP solution was diluted to a 4× working concentration in buffer containing 50 mM HEPES pH 7.5, 0.01% BRIJ-35, 10 mM MgCl2, and 1 mM EGTA.
After the 1 hour Kinase Reaction incubation, 5 μL of a 1:16 dilution of Development Reagent B was added, and the development reaction was allowed to proceed for an additional 1 hour at room temperature. The assay plate was then read on a fluorescence plate reader and the data analyzed as outlined above.
IC50 values were calculated by non-linear least squares curve fitting using XLfit from IDBS to fit the results to model number 205 (sigmoidal dose-response model).
`CC(=O)Nc1nc2ccc(-c3ccc4[nH]ccc4c3)nc2s1` [Example 2, N-(5-(1H-Indol-5-yl)thiazolo[5,4-b]pyridin-2-yl)acetamide] showed an IC50 of 100 to 1000 nM. `CC(=O)Nc1nc2ccc(-c3ccc4[nH]ncc4c3)nc2s1` [Example 3, N-(5-(1H-Indazol-5-yl)thiazolo[5,4-b]pyridin-2-yl)acetamide] gave an IC50 of 100 to 1000 nM. `CC(=O)Nc1ccc(-c2ccc3nc(NC(C)=O)sc3n2)cn1` [Example 4, N-(5-(6-Acetamidopyridin-3-yl)thiazolo[5,4-b]pyridin-2-yl)acetamide] gave an IC50 of 100 to 1000 nM. `CNC(=O)c1ccc(-c2ccc3nc(NC(C)=O)sc3n2)cn1` [Example 6, 5-(2-Acetamidothiazolo[5,4-b]pyridin-5-yl)-N-methylpicolinamide] gave an IC50 of 100 to 1000 nM. Work on `CC(=O)Nc1nc2ccc(-c3cnc(Cl)c(NS(=O)(=O)c4ccccc4)c3)nc2s1` [Example 7, N-(5-(6-Chloro-5-(phenylsulfonamido)pyridin-3-yl)thiazolo[5,4-b]pyridin-2-yl)acetamide] yielded an IC50 of less than 100 nM. `CC(=O)Nc1nc2ccc(-c3cnc(Cl)c(NS(C)(=O)=O)c3)nc2s1` [Example 8, N-(5-(6-Chloro-5-(methylsulfonamido)pyridin-3-yl)thiazolo[5,4-b]pyridin-2-yl)acetamide] showed an IC50 of less than 100 nM. For `CS(=O)(=O)Nc1cc(-c2ccc3nc(NC(=O)C4CC4)sc3n2)cnc1Cl` [Example 9, N-(5-(6-Chloro-5-(methylsulfonamido)pyridin-3-yl)thiazolo[5,4-b]pyridin-2-yl)cyclopropanecarboxamide], the IC50 was less than 100 nM. `CC(=O)Nc1nc2ccc(-c3ccccc3)cc2s1` [Example 10, N-(6-Phenylbenzo[d]thiazol-2-yl)acetamide] showed an IC50 greater than 1000 nM. With `CC(=O)Nc1nc2ccc(-c3cccnc3)cc2s1` [Example 11, N-(6-(Pyridin-3-yl)benzo[d]thiazol-2-yl)acetamide] the IC50 was 100 to 1000 nM. Molecule `CC(=O)Nc1nc2ccc(-c3ccc4[nH]ccc4c3)cc2s1` [Example 12, N-(6-(1H-Indol-5-yl)benzo[d]thiazol-2-yl)acetamide] has an IC50 greater than 1000 nM. For `CC(=O)Nc1nc2ccc(-c3ccc(N)cc3)cc2s1` [Example 13, N-(6-(4-Aminophenyl)benzo[d]thiazol-2-yl)acetamide], the IC50 was greater than 1000 nM. Work on `CC(=O)Nc1nc2ccc(-c3ccc4[nH]cc(C=O)c4c3)cc2s1` [Example 15, N-(6-(3-Formyl-1H-indol-5-yl)benzo[d]thiazol-2-yl)acetamide] yielded an IC50 of less than 100 nM. Work on `CC(=O)Nc1nc2ccc(-c3ccc4[nH]cc(C(N)=O)c4c3)cc2s1` [Example 17, 5-(2-Acetamidobenzo[d]thiazol-6-yl)-1H-indole-3-carboxamide] yielded an IC50 greater than 1000 nM. `CC(=O)Nc1nc2ccc(-c3cnc(Cl)c(NS(=O)(=O)c4ccccc4)c3)cc2s1` [Example 18, N-(6-(6-Chloro-5-(phenylsulfonamido)pyridin-3-yl)benzo[d]thiazol-2-yl)acetamide] gave an IC50 of less than 100 nM. `CC(=O)Nc1nc2ccc(-c3ccc(N)cc3C(F)(F)F)cc2s1` [Example 19, N-(6-(4-Amino-2-(trifluoromethyl)phenyl)benzo[d]thiazol-2-yl)acetamide] was tested, and the IC50 was greater than 1000 nM. With `CC(=O)Nc1nc2ccc(-c3cnc(N)cn3)cc2s1` [Example 20, N-(6-(5-Aminopyrazin-2-yl)benzo[d]thiazol-2-yl)acetamide] the IC50 was 100 to 1000 nM. Molecule `CC(=O)Nc1nc2ccc(-c3ccc4nccn4c3)nc2s1` [Example 22, N-(5-(Imidazo[1,2-a]pyridin-6-yl)thiazolo[5,4-b]pyridin-2-yl)acetamide] has an IC50 of 100 to 1000 nM. `CC(=O)Nc1nc2ccc(-c3ccc(C#N)nc3)nc2s1` [Example 23, N-(5-(6-Cyanopyridin-3-yl)thiazolo[5,4-b]pyridin-2-yl)acetamide] gave an IC50 of 100 to 1000 nM. Molecule `CC(=O)Nc1nc2ccc(-c3cnc4[nH]ccc4c3)nc2s1` [Example 24, N-(5-(1H-Pyrrolo[2,3-b]pyridin-5-yl)thiazolo[5,4-b]pyridin-2-yl)acetamide] has an IC50 of less than 100 nM.
